Values after ≈ are worked out from the molar mass of the structure shown. Read-outs that look alike come from different tables or passages of the source.
Assays:
Assay type in all cases: cell-based
[1] = test system: E. faecium ATCC 35667; assay: In vitro antibacterial evaluation, MIC by agar dilution, E. faecium ATCC 35667; settings: Enterococcus faecium, ATCC35667, read-out: MIC
How it was run: (§1)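 In this standardized agar dilution format, compound was dissolved in PBS pH 7.2, with Tween 20 or DMSO as needed, and mixed into molten Mueller-Hinton agar to final levels of 128 down to ≤0.25 μg/mL. About 10^4 cfu were spotted per isolate, and MIC was recorded after 16-20 h at 35°-36° C.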

[2] = test system: S. aureus ATCC 29213; assay: In vitro antibacterial evaluation, MIC by agar dilution, S. aureus ATCC 29213; settings: Staphylococcus aureus, ATCC29213
How it was run: as §1

[3] = test system: S. epidermidis ATCC 31432; assay: In vitro antibacterial evaluation, MIC by agar dilution, S. epidermidis ATCC 31432; settings: Staphylococcus epidermidis, ATCC31432
Description: (§2) The compounds of the invention were evaluated against several β-lactamresistant bacteria strains by determining the minimum inhibitory concentration (MIC, μg/ml) of each compound with respect to each strain. The MIC, the lowest concentration of antibiotic which inhibits growth of the test organism, was determined by the agar dilution method.
(§3) To determine the MIC for bacterial isolates, the test compound was incorporated in a series of two-fold dilutions into liquified Mueller-Hinton agar. Upon solidification, a number of different bacterial strains were spot inoculated with a replicating device onto the agar surface. […] The procedures used in these studies have been standardized by the National Committee for Clinical Laboratory Standards (NCCLS), as per the NCCLS publication entitled METHODS FOR DILUTION ANTIMICROBIAL SUSCEPTIBILITY TESTS (1991), which is incorporated herein by reference.
(§4) Aliquots of antimicrobial agents were prepared in phosphate buffered saline (PBS) at pH 7.2. Tween 20 or DMSO was used as a solubilizing vehicle as needed. Standard methods of vortexing, sonicating and gentle heat were used to facilitate solubilizing the test agent. Typically, the concentration of the stock solution was 10× that of the highest drug concentration tested. A 1.28 mg/mL stock solution was used with a subsequent highest working concentration of 128 μg/mL. Serial two-fold dilutions were done through ≤0.25 μg/mL. Each drug level was tested in duplicate. Two-fold drug dilutions were done in sterile 50 mL tubes with a final drug volume of 5 mL. Upon the addition of 45 mL of molten agar, a 10-fold dilution resulted. Two, 25 mL. plates were then poured into 15×150 mm square Petri plates with grids and allowed to harden.
(§5) A control plate with a reference drug, either cefotaxime, vancomycin or imipenem, was used as the positive growth control. Stock concentrations of reference antibiotics were prepared and frozen at -80° C. Upon preparation, the control plates were sealed and stored in the refrigerator for up to 1 week prior to use; however, imipenem control plates had to be prepared just prior to use. All test plates were used within 24 hours of preparation.
(§6) Satisfactory results were obtained where the inoculum contained about 10^4 colony forming units (cfu) ±0.5 logs. Starting with pure cultures of the test isolates on agar plates, a few isolated colonies were transferred to a tube of nutrient broth and allowed to grow 4-6 hours at 35°-36° C. to reach log-phase growth. Dropwise addition of the broth culture to PBS was done to match a 0.5 McFarland turbidity standard equal to 10^8 cfu/mL. This was further diluted ten-fold in PBS to reach a working inoculum concentration of 10^7 cfu/mL. When 1 μL of the working inoculum was applied to the agar surface a concentration of about 10^4 cfu per spot was obtained.
(§7) Disposable sterile 1 μL loops were used to inoculate test plates, with each isolate in a designated grid on the agar plate. An alternate method of inoculation involved the use of a replica plater, a device with 48 steel pins allowing the simultaneous inoculation of multiple isolates. After the spots had dried, the plates were incubated at 35°-36° C. for 16-20 hours. Endpoints were assessed as the minimum inhibitory concentration (MIC) of antimicrobial agent.

[4] = test system: S. aureus 76 (Meth^R)(lac^+); assay: In vitro antibacterial evaluation, MIC by agar dilution, S. aureus 76; settings: Staphylococcus aureus, read-out: MIC
How it was run: as §1

[5] = test system: S. haemolyticus (Meth^R); assay: In vitro antibacterial evaluation, MIC by agar dilution, S. haemolyticus; settings: Staphylococcus haemolyticus, read-out: MIC
How it was run: as §1

[6] = test system: E. coli ATCC 25922; assay: In vitro antibacterial evaluation, MIC by agar dilution, E. coli ATCC 25922; settings: Escherichia coli, ATCC25922, read-out: MIC
How it was run: as §1

[7] = test system: S. aureus Col8A (Meth^S)(lac^-); assay: In vitro antibacterial evaluation, MIC by agar dilution, S. aureus Col8A; settings: Staphylococcus aureus
How it was run: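 Log-phase isolates were spot-inoculated at about 10^4 cfu onto Mueller-Hinton agar carrying duplicate two-fold compound levels, 128 μg/mL to ≤0.25 μg/mL, following NCCLS (1991). Plates were read after 16-20 h at 35°-36° C. The lowest growth-inhibiting concentration gave the MIC (μg/ml).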

[8] = test system: P. aeruginosa ATCC 27853; assay: In vitro antibacterial evaluation, MIC by agar dilution, P. aeruginosa ATCC 27853; settings: Pseudomonas aeruginosa, ATCC27853, read-out: MIC
How it was run: as §1

[9] = test system: S. aureus ATCC 25923; assay: In vitro antibacterial evaluation, MIC by agar dilution, S. aureus ATCC 25923; settings: Staphylococcus aureus, ATCC25923
Description: as §2, §3, §4, §5, §6, §7

[10] = test system: E. faecalis ATCC 29212; assay: In vitro antibacterial evaluation, MIC by agar dilution, E. faecalis ATCC 29212; settings: Enterococcus faecalis, ATCC29212; E. faecalis ATCC 29212; read-out: MIC
How it was run: as §1

SMILES | MIC [1] [µg/mL] | MIC [2] [µg/mL] | MIC [3] [µg/mL] | MIC [4] [µg/mL] | MIC [5] [µg/mL] | MIC [6] [µg/mL] | MIC [7] [µg/mL] | MIC [8] [µg/mL] | MIC [9] [µg/mL] | MIC [10] [µg/mL] | MIC ([9]; S. aureus ATCC 25923, read-out: MIC) [µg/mL] | MIC ([3]; S. epidermidis ATCC 31432, read-out: MIC) [µg/mL]
O=C(Cc1ccccc1)N[C@@H]1C(=O)N2C(C(=O)O)=C(Sc3ccc(Cl)cc3Cl)CS[C@H]12 [Cmpd 28, (7R)-7-[(Phenylacetyl)amino]-3-(2,4-dichlorophenylthio)-3-cephem-4-carboxylic acid] | 2 (≈ 4.04 µM) | < 0.25 | < 0.25 | 4 (≈ 8.07 µM) | 8 (≈ 16.1 µM) | > 32 | < 0.25 | – | – | – | – | –
COc1ccc(CC(=O)N[C@@H]2C(=O)N3C(C(=O)O)=C(Sc4ccccc4I)CS[C@H]23)cc1 [Cmpd 29, (7R)-7-[(p-Methoxyphenylacetyl)amino]-3-(o-iodophenylthio)-3-cephem-4-carboxylic acid] | 1 (≈ 1.72 µM) | < 0.25 | < 0.25 | 4 (≈ 6.87 µM) | 16 (≈ 27.5 µM) | > 32 | < 0.25 | – | – | – | – | –
O=C(COc1ccc(Cl)cc1)N[C@@H]1C(=O)N2C(C(=O)O)=C(Sc3ccccc3I)CS[C@H]12 [Cmpd 30, (7R)-7-[(p-Chlorophenoxyacetyl)amino]-3-(o-iodophenylthio)-3-cephem-4-carboxylic acid] | 1 (≈ 1.66 µM) | < 0.25 | < 0.25 | 2 (≈ 3.32 µM) | 4 (≈ 6.64 µM) | > 32 | < 0.25 | 13 (≈ 21.6 µM) | – | – | – | –
O=C(COc1ccc(Cl)cc1)N[C@@H]1C(=O)N2C(C(=O)O)=C(Sc3cc(Cl)ccc3Cl)CS[C@H]12 [Cmpd 31, (7R)-7-[(p-Chlorophenoxyacetyl)amino]-3-(2,5-dichlorophenylthio)-3-cephem-4-carboxylic acid] | 4 (≈ 7.33 µM) | < 0.25 | < 0.25 | 4 (≈ 7.33 µM) | 8 (≈ 14.7 µM) | > 32 | < 0.25 | – | – | – | – | –
COc1ccc(CC(=O)N[C@@H]2C(=O)N3C(C(=O)O)=C(Sc4cc(Cl)ccc4Cl)CS[C@H]23)cc1 [Cmpd 32, (7R)-7-[(p-Methoxyphenylacetyl)amino]-3-(2,5-dichlorophenylthio)-3-cephem-4-carboxylic acid] | 2 (≈ 3.81 µM) | < 0.25 | < 0.25 | 4 (≈ 7.61 µM) | 16 (≈ 30.5 µM) | > 32 | < 0.25 | – | – | – | – | –
O=C(Cc1ccccc1)N[C@@H]1C(=O)N2C(C(=O)O)=C(Sc3cc(F)ccc3Br)CS[C@H]12 [Cmpd 33, (7R)-7-[(Phenylacetyl)amino]-3-(2-bromo-5-fluorophenylthio)-3-cephem-4-carboxylic acid] | 1 (≈ 1.91 µM) | < 0.25 | < 0.25 | 4 (≈ 7.64 µM) | 16 (≈ 30.6 µM) | > 32 | < 0.25 | – | – | – | – | –
N#CCC(=O)N[C@@H]1C(=O)N2C(C(=O)O)=C(Sc3ccccc3-c3ccccc3)CS[C@H]12 [Cmpd 34, (7R)-7-[(Cyanoacetyl)amino]-3-(2-biphenylthio)-3-cephem-4-carboxylic acid] | 2 (≈ 4.43 µM) | – | < 0.25 | 8 (≈ 17.7 µM) | 8 (≈ 17.7 µM) | > 32 | < 0.25 | > 32 | < 0.25 | 2 (≈ 4.43 µM) | – | –
O=C(CSc1ccccc1)N[C@@H]1C(=O)N2C(C(=O)O)=C(Sc3cc(Cl)ccc3Cl)CS[C@H]12 [Cmpd 35, (7R)-7-[(Phenylthioacetyl)amino]-3-(2,5-dichlorophenylthio)-3-cephem-4-carboxylic acid] | 1 (≈ 1.9 µM) | – | < 0.25 | 2 (≈ 3.79 µM) | 8 (≈ 15.2 µM) | > 32 | < 0.25 | > 32 | < 0.25 | 1 (≈ 1.9 µM) | – | –
C=Cc1ccccc1SC1=C(C(=O)O)N2C(=O)[C@@H](NC(=O)Cc3ccccc3)[C@H]2SC1 [Cmpd 36, (7R)-7-[(Phenylacetyl)amino]-3-(2-vinylphenylthio)-3-cephem-4-carboxylic acid] | 4 (≈ 8.84 µM) | – | < 0.25 | 8 (≈ 17.7 µM) | 16 (≈ 35.4 µM) | > 32 | < 0.25 | > 32 | < 0.25 | 2 (≈ 4.42 µM) | – | –
O=C(Cc1ccccc1)N[C@@H]1C(=O)N2C(C(=O)O)=C(Sc3ccccc3-c3cccs3)CS[C@H]12 [Cmpd 37, (7R)-7-[(Phenylacetyl)amino]-3-(2-(2-thienyl)phenylthio)-3-cephem-4-carboxylic acid] | 2 (≈ 3.93 µM) | – | < 0.25 | 8 (≈ 15.7 µM) | 16 (≈ 31.5 µM) | > 32 | < 0.25 | > 32 | < 0.25 | 2 (≈ 3.93 µM) | – | –
O=C(Cc1ccccc1)N[C@@H]1C(=O)N2C(C(=O)O)=C(Sc3ccccc3CO)CS[C@H]12 [Cmpd 38, (7R)-7-[(Phenylacetyl)amino]-3-(2-hydroxymethylphenylthio)-3-cephem-4-carboxylic acid] | 4 (≈ 8.76 µM) | – | < 0.25 | 16 (≈ 35 µM) | 32 (≈ 70.1 µM) | > 32 | < 0.25 | > 32 | < 0.25 | 4 (≈ 8.76 µM) | – | –
O=C(Cc1ccccc1)N[C@@H]1C(=O)N2C(C(=O)O)=C(Sc3ccc(Br)cc3Br)CS[C@H]12 [Cmpd 39, (7R)-7-[(Phenylacetyl)amino]-3-(2,4-dibromophenylthio)-3-cephem-4-carboxylic acid] | 2 (≈ 3.42 µM) | – | < 0.25 | 4 (≈ 6.85 µM) | 8 (≈ 13.7 µM) | > 32 | < 0.25 | > 32 | < 0.25 | 2 (≈ 3.42 µM) | – | –
O=C(Cc1ccccc1)N[C@@H]1C(=O)N2C(C(=O)O)=C(Sc3ccc(C(F)(F)F)cc3)CS[C@H]12 [Cmpd 40, (7R)-7-[(Phenylacetyl)amino]-3-(4-trifluoromethylphenylthio)-3-cephem-4-carboxylic acid] | 4 (≈ 8.09 µM) | – | < 0.25 | 16 (≈ 32.4 µM) | 32 (≈ 64.7 µM) | > 32 | < 0.25 | > 32 | < 0.25 | 4 (≈ 8.09 µM) | – | –
Nc1nc(/C(=N/O)C(=O)N[C@@H]2C(=O)N3C(C(=O)O)=C(Sc4ccccc4-c4ccccc4)CS[C@H]23)cs1 [Cmpd 42, (7R)-7-[(Z)-2-(aminothiazol-4-yl)-2-(hydroxyimino)acetamido]-3-(2-biphenylthio)-3-cephem-4-carboxylic acid] | 2 (≈ 3.61 µM) | – | – | 8 (≈ 14.4 µM) | 16 (≈ 28.9 µM) | 32 (≈ 57.8 µM) | 0.5 (≈ 0.903 µM) | > 32 | – | 2 (≈ 3.61 µM) | < 0.25 | < 0.25
O=C(Cc1ccccc1)N[C@@H]1C(=O)N2C(C(=O)O)=C(Sc3cccc4ccccc34)CS[C@H]12 [Cmpd 54, (7R)-7-[(Phenylacetyl)amino]-3-(1-naphthalenylthio)-3-cephem-4-carboxylic acid] | 4 (≈ 8.39 µM) | < 0.25 | < 0.25 | 8 (≈ 16.8 µM) | 16 (≈ 33.6 µM) | > 32 | < 0.25 | > 32 | – | – | – | –
